Data: patent publication US10189839B2, “Tricyclic imidazole compounds as inhibitors of tryptophan hydroxylase” (ACTELION PHARMACEUTICALS LTD, priority 2013, dated 2019)

target: T1, full length human TPH1 (Homo sapiens, UniProt P17752); assay: Biochemical in vitro assay using fluorescence readout (TPH1 enzyme activity); details: Table 1, mean where determined several times
T1 construct: To generate the enzyme, full length human TPH1 is cloned into the plasmid pET20b(+); made in house; host or cells: E. coli
T1 sequence (P17752 1-444): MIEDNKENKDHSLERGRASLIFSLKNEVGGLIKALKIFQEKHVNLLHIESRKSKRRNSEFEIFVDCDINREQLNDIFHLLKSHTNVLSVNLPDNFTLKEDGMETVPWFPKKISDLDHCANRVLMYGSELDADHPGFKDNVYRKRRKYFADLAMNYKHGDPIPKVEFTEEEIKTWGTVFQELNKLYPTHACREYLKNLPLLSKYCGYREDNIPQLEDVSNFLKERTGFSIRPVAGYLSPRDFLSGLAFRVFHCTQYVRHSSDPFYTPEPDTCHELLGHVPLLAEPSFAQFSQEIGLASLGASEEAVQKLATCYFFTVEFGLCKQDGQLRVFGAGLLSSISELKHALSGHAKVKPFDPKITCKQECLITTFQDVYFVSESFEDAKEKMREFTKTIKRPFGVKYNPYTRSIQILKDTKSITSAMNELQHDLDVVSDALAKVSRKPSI
Summary of the method: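 IC50 (mean of repeats) derived from 5-hydroxy-L-tryptophan fluorescence at 540 nm (300 nm excitation) relative to vehicle, after perchloric acid stop. Reaction: 60 min, 15° C., pH 7.6 Tris-HCl, 40 μM L-tryptophan, 100 μM 6-methyltetrahydropterine, DTT, catalase, with 40-80 nM purified full-length human TPH1 from E. coli.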

| SMILES | IC50 [nM] |
| --- | --- |
| Cc1nc(C)c(C2c3c(nc4n3CCCC4)CCN2C(=O)COc2ccc(NS(C)(=O)=O)nc2Cl)s1 (centres unmarked) [Example 1.10.1, N-(6-chloro-5-(2-(1-(2,4-dimethylthiazol-5-yl)-3,4,6,7,8,9-hexahydroimidazo[1,2-a:5,4-c′]dipyridin-2(1H)-yl)-2-oxoethoxy)pyridin-2-yl)methanesulfonamide] | 12 |
| CC(=O)N1CCn2c(nc3c2C(c2ccc(C4CC4)cc2F)N(C(=O)COc2cccnc2Cl)CC3)C1 (centres unmarked) [Example 5.2.14, 1-(7-acetyl-1-(4-cyclopropyl-2-fluorophenyl)-3,4,6,7,8,9-hexahydropyrido[4′,3′:4,5]imidazo[1,2-a]pyrazin-2(1H)-yl)-2-((2-chloropyridin-3-yl)oxy)ethanone] | 28 |
| CC(C)(C)OC(=O)N1CCn2c(nc3c2C(c2ncc(C4CC4)cc2F)N(C(=O)COc2ccc(N4CCOCC4)nc2Cl)CC3)C1 (centres unmarked) [Example 5.4.1, tert-butyl 2-(2-((2-chloro-6-morpholinopyridin-3-yl)oxy)acetyl)-1-(5-cyclopropyl-3-fluoropyridin-2-yl)-1,2,3,4,8,9-hexahydropyrido[4′,3′:4,5]imidazo[1,2-a]pyrazine-7(6H)-carboxylate] | 77 |
| CCOC(=O)c1csc(C2c3c(nc4n3CCCC4)CCN2C(=O)COc2ccc(NS(C)(=O)=O)nc2Cl)n1 (centres unmarked) [Example 1.5.1, Ethyl 2-(2-(2-((2-chloro-6-(methylsulfonamido)pyridin-3-yl)oxy)acetyl)-1,2,3,4,6,7,8,9-octahydroimidazo[1,2-a:5,4-c′]dipyridin-1-yl)thiazole-4-carboxylate] | 558 |
| CCc1nc(C(=O)NC2CC2)ccc1OCC(=O)N1CCc2nc3n(c2C1c1sccc1F)CCCC3 (centres unmarked) [Example 1.14.2, N-cyclopropyl-6-ethyl-5-(2-(1-(3-fluorothiophen-2-yl)-3,4,6,7,8,9-hexahydroimidazo[1,2-a:5,4-c′]dipyridin-2(1H)-yl)-2-oxoethoxy)picolinamide] | 12 |
| CS(=O)(=O)Nc1ccc(OCC(=O)N2CCc3nc4n(c3C2c2ccc(Cl)cc2F)CCCC4)c(Cl)n1 (centres unmarked) [Example 1.1.3, N-(6-chloro-5-(2-(1-(4-chloro-2-fluorophenyl)-3,4,6,7,8,9-hexahydroimidazo[1,2-a:5,4-c′]dipyridin-2(1H)-yl)-2-oxoethoxy)pyridin-2-yl)methanesulfonamide] | 26 |
| CN(C)C(=O)c1ccc(OCC(=O)N2CCc3nc4n(c3C2c2sc(C(=O)N(C)C)cc2F)CCOC4)c(Cl)n1 (centres unmarked) [Example 6.3.1, 6-chloro-5-(2-(6-(5-(dimethylcarbamoyl)-3-fluoro-thiophen-2-yl)-3,4,8,9-tetrahydro-1H-pyrido[4′,3′:4,5]imidazo[2,1-c][1,4]oxazin-7(6H)-yl)-2-oxoethoxy)-N,N-dimethylpicolinamide] | 37 |
| CCc1nc(C(=O)NC2CC2)ccc1OCC(=O)N1CCc2nc3n(c2[C@@H]1c1sc(C)nc1C)CCC3 [Example 2.4.3, (R)-N-cyclopropyl-5-(2-(1-(2,4-dimethylthiazol-5-yl)-3,4,7,8-tetrahydro-1H-pyrrolo[2′,1′:2,3]imidazo[4,5-c]pyridin-2(6H)-yl)-2-oxoethoxy)-6-ethylpicolinamide] | 9 |
| CCc1nc(NS(C)(=O)=O)ccc1OCC(=O)N1CCc2nc3n(c2[C@@H]1c1sc(C)nc1C)CCC3 [Example 2.4.2, (R)-N-(5-(2-(1-(2,4-dimethylthiazol-5-yl)-3,4,7,8-tetrahydro-1H-pyrrolo[2′,1′:2,3]imidazo[4,5-c]pyridin-2(6H)-yl)-2-oxoethoxy)-6-ethylpyridin-2-yl)methanesulfonamide] | 7 |
| O=C(NC1CC1)c1ccc(OCC(=O)N2CCc3nc4n(c3C2c2ccc(Cl)cc2F)CCCC4)c(C2CC2)n1 (centres unmarked) [Example 1.1.22, 5-(2-(1-(4-chloro-2-fluorophenyl)-3,4,6,7,8,9-hexahydroimidazo[1,2-a:5,4-c′]dipyridin-2(1H)-yl)-2-oxoethoxy)-N,6-dicyclopropylpicolinamide] | 10 |
| COCc1ccc(C2c3c(nc4n3CCCC4)CCN2C(=O)COc2ccc(C(=O)NC3CC3)nc2Cl)c(F)c1 (centres unmarked) [Example 1.26.1, 6-chloro-N-cyclopropyl-5-(2-(1-(2-fluoro-4-(methoxymethyl)phenyl)-3,4,6,7,8,9-hexahydroimidazo[1,2-a:5,4-c′]dipyridin-2(1H)-yl)-2-oxoethoxy)picolinamide] | 19 |
| CCc1nc(C)ccc1OCC(=O)N1CCc2nc3n(c2C1c1ccc(C2CC2)cc1F)CCN(C(=O)OC(C)(C)C)C3 (centres unmarked) [Example 5.2.1, tert-butyl 1-(4-cyclopropyl-2-fluorophenyl)-2-(2-((2-ethyl-6-methylpyridin-3-yl)oxy)acetyl)-1,2,3,4,8,9-hexahydropyrido[4′,3′:4,5]imidazo[1,2-a]pyrazine-7(6H)-carboxylate] | 74 |
| COC(C)(C)c1ccc(C2c3c(nc4n3CCCC4)CCN2C(=O)COc2ccc(NS(C)(=O)=O)nc2Cl)c(F)c1 (centres unmarked) [Example 1.25.2, N-(6-chloro-5-(2-(1-(2-fluoro-4-(2-methoxypropan-2-yl)phenyl)-3,4,6,7,8,9-hexahydroimidazo[1,2-a:5,4-c′]dipyridin-2(1H)-yl)-2-oxoethoxy)pyridin-2-yl)methanesulfonamide] | 303 |
| COc1ccc(C2c3c(nc4n3CCCC4)CCN2C(=O)COc2ccc(C(=O)NC3CC3)nc2Cl)c(F)c1 (centres unmarked) [Example 1.21.1, 6-chloro-N-cyclopropyl-5-(2-(1-(2-fluoro-4-methoxyphenyl)-3,4,6,7,8,9-hexahydroimidazo[1,2-a:5,4-c′]dipyridin-2(1H)-yl)-2-oxoethoxy)picolinamide] | 18 |
| Cc1ccc(C2c3c(nc4n3CCCCC4)CCN2C(=O)COc2ccc(NS(C)(=O)=O)nc2Cl)c(F)c1 (centres unmarked) [Example 3.2.1, N-(6-chloro-5-(2-(1-(2-fluoro-4-methylphenyl)-3,4,7,8,9,10-hexahydro-1 H-pyrido[4′,3′:4,5]imidazo-[1,2-a]azepin-2(6H)-yl)-2-oxoethoxy)pyridin-2-yl)methanesulfonamide] | 21 |
| CCc1nc(C(=O)NC2CC2)ccc1OCC(=O)N1CCc2nc3n(c2C1c1ncc(C)cc1F)CCCC3 (centres unmarked) [Example 1.6.7, N-cyclopropyl-6-ethyl-5-(2-(1-(3-fluoro-5-methylpyridin-2-yl)-3,4,6,7,8,9-hexahydroimidazo[1,2-a:5,4-c′]dipyridin-2(1H)-yl)-2-oxoethoxy)picolinamide] | 8 |
| CC(=O)N1CCn2c(nc3c2C(c2ncc(Cl)cc2F)N(C(=O)COc2ccc(N4CCOCC4)nc2Cl)CC3)C1 (centres unmarked) [Example 5.9.1, 1-(7-acetyl-1-(5-chloro-3-fluoropyridin-2-yl)-3,4,6,7,8,9-hexahydropyrido[4′,3′:4,5]imidazo[1,2-a]pyrazin-2(1H)-yl)-2-((2-chloro-6-morpholinopyridin-3-yl)oxy)ethanone] | 8 |
| CCc1nc(NS(C)(=O)=O)ccc1OCC(=O)N1CCc2nc3n(c2C1c1ccc(C)c(F)c1F)CCS3 (centres unmarked) [Example 4.4.1, N-(5-(2-(5-(2,3-difluoro-4-methylphenyl)-2,3,7,8-tetrahydrothiazolo[2′,3′:2,3]imidazo[4,5-c]pyridin-6(5H)-yl)-2-oxoethoxy)-6-ethylpyridin-2-yl)methanesulfonamide] | 6 |
| O=C(COc1ccc(N2CCOCC2)nc1Cl)N1CCc2nc3n(c2C1c1ncc(C2CC2)cc1F)CCNC3 (centres unmarked) [Example 5.4.3, 2-((2-chloro-6-morpholinopyridin-3-yl)oxy)-1-(1-(5-cyclopropyl-3-fluoropyridin-2-yl)-3,4,6,7,8,9-hexahydropyrido[4′,3′:4,5]imidazo[1,2-a]pyrazin-2(1H)-yl)ethanone] | 20 |
| CCc1nc(NS(C)(=O)=O)ccc1OCC(=O)N1CCc2nc3n(c2C1c1sc(C)nc1C)CCS3 (centres unmarked) [Example 4.5.1, N-(5-(2-(5-(2,4-dimethylthiazol-5-yl)-2,3,7,8-tetrahydrothiazolo[2′,3′:2,3]imidazo[4,5-c]pyridin-6(5H)-yl)-2-oxoethoxy)-6-ethylpyridin-2-yl)methanesulfonamide] | 16 |
| CCc1nc(NS(C)(=O)=O)ccc1OCC(=O)N1CCc2nc3n(c2C1c1ccc(C)c(F)c1F)CCCC3 (centres unmarked) [Example 1.9.7, N-(5-(2-(1-(2,3-difluoro-4-methylphenyl)-3,4,6,7,8,9-hexahydroimidazo[1,2-a:5,4-c′]dipyridin-2(1H)-yl)-2-oxoethoxy)-6-ethylpyridin-2-yl)methanesulfonamide] | 8 |
| CN(C)C(=O)c1ccc(OCC(=O)N2CCc3nc4n(c3C2c2ccc(Cl)cc2F)CCCC4)c(Cl)n1 (centres unmarked) [Example 1.1.1, 6-chloro-5-(2-(1-(4-chloro-2-fluorophenyl)-3,4,6,7,8,9-hexahydroimidazo[1,2-a:5,4-c′]dipyridin-2(1H)-yl)-2-oxoethoxy)-N,N-dimethylpicolinamide] | 15 |
| CC(=O)N1CCn2c(nc3c2C(c2ccc(C)cc2F)N(C(=O)COc2ccc(CN4CCOCC4)cc2Cl)CC3)C1 (centres unmarked) [Example 5.12.3, 1-(7-acetyl-1-(2-fluoro-4-methylphenyl)-3,4,6,7,8,9-hexahydropyrido[4′,3′:4,5]imidazo[1,2-a]pyrazin-2(1H)-yl)-2-(2-chloro-4-(morpholinomethyl)phenoxy)ethanone] | 15 |
